Measurements reported in US3943172A, “Derivatives of 2-amino-(1,2,3,4-tetrahydronaphthalene), the preparation and use thereof” (priority 1972, dated 1976).

How the values were obtained:
[1] = test system: premature heart contractions; assay: oral antiarrhythmic activity in rats using aconitine (dose of aconitine to first extrasystoles); assay type: in vivo; details: 75 mg/kg, 75 minutes before aconitine perfusion, acid addition salts; for % Activity versus Lidocaine: relative to lidocaine; for % Activity versus Procainamide: relative to procainamide
Protocol: The method used for these tests is described hereafter:
Male or female rats with a body-weight ranging from 380 to 450 g.
3.12 μg aconitine nitrate/1 ml physiological saline.
Solution of the compound to be tested:
0.75% in distilled water.
Six random selected animals are required for each compound to be tested. The compound is administered by oral route at the dose of 75 mg/kg (1 ml of the 0.75% solution/100 g of body-weight) 75 minutes before the intravenous perfusion of the aconitine solution is initiated.
Control groups of animals are treated only with distilled water (1 ml/100 g).
60 minutes after the administration of the compound to be tested, the animals are anesthesized by an intraperitoneal injection of Pentobarbital (50 mg/kg) and the jugular vein is dissected.
A catheter is introduced in the vein and fixed by a ligature.
The ECG (D II derivation) is then continuously recorded. The perfusion of the aconitine solution is started 75 minutes after the administration of the compound to be tested.
The volume delivered by the injection device being 0.287 ml/minute, the dose of aconitine nitrate administered is 0.895 μg/minute (0.20 - 0.24 μg/100 g/minute according to the minimal and maximal weight of the animals).
The experience is stopped as soon as the first extrasystoles are appearing and the time elapsed from the beginning of the perfusion is noted.
The results are expressed as the mean total dose of aconitine injected in a group of animals.
The relative activity between a tested compound and a reference substance (lidocaine, procainamide) is computed in the following way: [formula] where: A(x) = activity of tested compound X (in %)
X = mean dose of aconitine in the animals treated by compound X
C = mean dose of aconitine injected in the untreated animals (controls)
R = mean dose of aconitine injected in the animals treated by the reference substances.

[2] = test system: tachycardias and fibrillation of ventricular origin; details: cited from earlier work; for oral activity: known antiarrhythmic agents, in words

| SMILES | % Activity versus Lidocaine [1] [%] | % Activity versus Procainamide [1] [%] | oral activity [2] | side effects [2] |
| --- | --- | --- | --- | --- |
| CCN(CC)CCN(c1ccccc1)C1CCc2ccccc2C1 (stereo not drawn) [1 H2 H N-diethyl, 2-[N-phenyl-N-(β-diethylaminoethyl)]-amino(1,2,3,4-tetrahydronaphthalene)] | 439 | 560 |  |  |
| CCN(CC)CCN(c1ccccc1)C1CCc2cc(OC)ccc2C1 (stereo not drawn) [1 H2 OCH3 N-diethyl, 2-[N-phenyl-N-(β-diethylaminoethyl)]-amino-6-methoxy-(1,2,3,4-tetrahydronaphthalene)] | 173 | 220 |  |  |
| COc1ccc2c(c1)CCC(N(CCN(C)C)c1ccccc1)C2 (stereo not drawn) [1 H2 OCH3 N-dimethyl, 2-[N-phenyl-N-(β-dimethylaminoethyl)]-amino-6-methoxy-(1,2,3,4-tetrahydronaphthalene)] | 57 | 72 |  |  |
| COc1ccc2c(c1)CCC(N(CCN1CCCCC1)c1ccccc1)C2 (stereo not drawn) [1 H2 OCH3 piperidino, 2-[N-phenyl-N-(β-piperidinoethyl)]-amino-6-methoxy-(1,2,3,4-tetrahydronaphthalene)] | 103 | 131 |  |  |
| CNCCC(=O)N(c1ccccc1)C1CCc2ccccc2C1 (stereo not drawn) [2 0 H NH-methyl, 2-[N-phenyl-N-(β-methylaminopropionyl)]-amino-(1,2,3,4-tetrahydronaphthalene)] | 769 | 982 |  |  |
| CCN(CC)CCCN(c1ccccc1)C1CCc2ccccc2C1 (stereo not drawn) [2 H2 H N-diethyl, 2-[N-phenyl-N-(γ-diethylaminopropyl)]-amino-(1,2,3,4-tetrahydronaphthalene)] | 563 | 719 |  |  |
| CN(C)CCCN(c1ccccc1)C1CCc2ccccc2C1 (stereo not drawn) [2 H2 H N-dimethyl, 2-[N-phenyl-N-(γ-dimethylaminopropyl)]-amino-(1,2,3,4-tetrahydronaphthalene)] | 41 | 52 |  |  |
| CCNCCCN(c1ccccc1)C1CCc2ccccc2C1 (stereo not drawn) [2 H2 H NH-ethyl, 2-[N-phenyl-N-(γ-ethylaminopropyl)]-amino-(1,2,3,4-tetrahydronaphthalene)] | 703 | 897 |  |  |
| CNCCCN(c1ccccc1)C1CCc2ccccc2C1 (stereo not drawn) [2 H2 H NH-methyl, 2-[N-phenyl-N-(γ-methylaminopropyl)]-amino-(1,2,3,4-tetrahydronaphthalene)] | 288 | 368 |  |  |
| c1ccc(N(CCCN2CCCCC2)C2CCc3ccccc3C2)cc1 (stereo not drawn) [2 H2 H piperidino, 2-[N-phenyl-N-(γ-piperidinopropyl)]-amino-(1,2,3,4-tetrahydronaphthalene)] | 62 | 78 |  |  |
| c1ccc(N(CCCN2CCCC2)C2CCc3ccccc3C2)cc1 (stereo not drawn) [2 H2 H pyrrolidino, 2-[N-phenyl-N-(γ-pyrrolidinopropyl)]-amino-(1,2,3,4-tetrahydronaphthalene)] | 268 | 342 |  |  |
| CCN(CC)CCCN(c1ccccc1)C1CCc2cc(OC)ccc2C1 (stereo not drawn) [2 H2 OCH3 N-diethyl, 2-[N-phenyl-N-(γ-diethylaminopropyl)]-amino-6-methoxy-(1,2,3,4-tetrahydronaphthalene)] | 96 | 123 |  |  |
| CCN(CC)CC(=O)Nc1c(C)cccc1C [lidocaine] |  |  | too low |  |
| CCN(CC)CCNC(=O)c1ccc(N)cc1 [procainamide] |  |  | too short | hypotension |
